Test results taken from PubChem BioAssay AID216 (DTP/NCI, 2004).
Values joined by “and” are separate entries in the source; they are usually repeats but may differ in a detail not shown here. Identical values can stand only once. Toxic doses and inconclusive results are not listed.

Test system: BDF1 mice, P288 leukemia ip, survival T/C
Assay: NCI In Vivo Anticancer Drug Screen. Data for tumor model P288 Lymphocytic Leukemia (intraperitoneal) in B6D2F1 (BDF1) mice
Details: endpoint: survival time, mean or median, higher = longer survival
Experimental: The antitumor activity of compounds was measured in mice bearing transplantable tumors. Survival or tumor size were measured and the results are expressed as the measurement made in the treated group (T) divided by the measurement made in the vehicle treated control group (C). The tumor model used in this assay is P288 Lymphocytic Leukemia (intraperitoneal) in B6D2F1 (BDF1) mice

[1] = dose: 12.5 mg/kg/injection, schedule: Q01DX Z (ip), vehicle: carboxymethylcellulose (CMC)
[2] = dose: 25.0 mg/kg/injection, schedule: Q01DX Z (ip), vehicle: carboxymethylcellulose (CMC)
[3] = dose: 50.0 mg/kg/injection, schedule: Q01DX Z (ip), vehicle: carboxymethylcellulose (CMC)
[4] = dose: 100.0 mg/kg/injection, schedule: Q01DX Z (ip), vehicle: carboxymethylcellulose (CMC)
[5] = dose: 8.0 mg/kg/injection, schedule: Q01DX010 (ip), vehicle: saline
[6] = dose: 31.25 mg/kg/injection, schedule: Q01DX Z (ip), vehicle: carboxymethylcellulose (CMC)
[7] = dose: 62.5 mg/kg/injection, schedule: Q01DX Z (ip), vehicle: carboxymethylcellulose (CMC)
[8] = dose: 125.0 mg/kg/injection, schedule: Q01DX Z (ip), vehicle: carboxymethylcellulose (CMC)

## CCCCNc1ncnc2c1cnn2C
dose: 0.22 mg/kg/injection, schedule: Q01DX Z (ip), vehicle: carboxymethylcellulose (CMC)
  T/C: 90 % of control
dose: 0.45 mg/kg/injection, schedule: Q01DX Z (ip), vehicle: carboxymethylcellulose (CMC)
  T/C: 90 % of control
dose: 0.9 mg/kg/injection, schedule: Q01DX Z (ip), vehicle: carboxymethylcellulose (CMC)
  T/C: 90 % of control

## CSc1ncnc2c1ncn2C1OC(CO)C(O)C1O (stereo unspecified)
dose: 3.1 mg/kg/injection, schedule: Q01DX Z (ip), vehicle: carboxymethylcellulose (CMC)
  T/C: 101 % of control
dose: 6.3 mg/kg/injection, schedule: Q01DX Z (ip), vehicle: carboxymethylcellulose (CMC)
  T/C: 124 % of control
[1]
  T/C: 118 % of control

## CN(Cc1cnc2nc(N)nc(N)c2n1)c1c(Cl)cc(C(=O)NC(CCC(=O)O)C(=O)O)cc1Cl (stereo unspecified)
[1]
  T/C: 232 % of control
[2]
  T/C: 300 % of control
[3]
  T/C: 320 % of control
[4]
  T/C: 288 % of control

## O=C(Nc1ccc(C2=NCCN2)cc1)c1ccc(C(=O)Nc2ccc(C3=NCCN3)cc2)c([N+](=O)[O-])c1
dose: 6.0 mg/kg/injection, schedule: Q01DX010 (ip), vehicle: saline
  T/C: 155 % of control and 175 % of control
[5]
  T/C: 188 % of control and 262 % of control
dose: 12.0 mg/kg/injection, schedule: Q01DX010 (ip), vehicle: saline
  T/C: 333 % of control and 375 % of control
dose: 18.0 mg/kg/injection, schedule: Q01DX010 (ip), vehicle: saline
  T/C: 187 % of control

## Cc1n[nH]c(=O)[nH]c1=O
dose: 50.0 mg/kg/injection, schedule: Q01DX Z (ip), vehicle: other
  T/C: 104 % of control
dose: 100.0 mg/kg/injection, schedule: Q01DX Z (ip), vehicle: other
  T/C: 101 % of control
dose: 200.0 mg/kg/injection, schedule: Q01DX Z (ip), vehicle: other
  T/C: 101 % of control and 110 % of control
dose: 400.0 mg/kg/injection, schedule: Q01DX Z (ip), vehicle: other
  T/C: 101 % of control and 110 % of control
dose: 800.0 mg/kg/injection, schedule: Q01DX Z (ip), vehicle: other
  T/C: 97 % of control

## O[C@H](CN1CC1)[C@@H](O)CN1CC1
dose: 8.0 micrograms/kg/injection, schedule: Q01DX Z (ip), vehicle: carboxymethylcellulose (CMC)
  T/C: 113 % of control
dose: 16.0 micrograms/kg/injection, schedule: Q01DX Z (ip), vehicle: carboxymethylcellulose (CMC)
  T/C: 112 % of control
dose: 31.0 micrograms/kg/injection, schedule: Q01DX Z (ip), vehicle: carboxymethylcellulose (CMC)
  T/C: 118 % of control
dose: 31.3 micrograms/kg/injection, schedule: Q01DX010 (ip), vehicle: saline
  T/C: 100 % of control
dose: 62.5 micrograms/kg/injection, schedule: Q01DX010 (ip), vehicle: saline
  T/C: 106 % of control
dose: 125.0 micrograms/kg/injection, schedule: Q01DX010 (ip), vehicle: saline
  T/C: 112 % of control
dose: 250.0 micrograms/kg/injection, schedule: Q01DX010 (ip), vehicle: saline
  T/C: 150 % of control
dose: 250.0 micrograms/kg/injection, schedule: Q01DX Z (ip), vehicle: carboxymethylcellulose (CMC)
  T/C: 170 % of control
dose: 500.0 micrograms/kg/injection, schedule: Q01DX Z (ip), vehicle: carboxymethylcellulose (CMC)
  T/C: 172 % of control and 200 % of control

## C[C@@H]1C[C@H]2CC[C@H](O2)[C@H](C)C(=O)O[C@@H](C)C[C@@H]2CC[C@@H](O2)[C@@H](C)C(=O)O[C@H](C)C[C@H]2CC[C@H](O2)[C@H](C)C(=O)O[C@@H](C)C[C@@H]2CC[C@@H](O2)[C@@H](C)C(=O)O1
[2]
  T/C: 98 % of control
[3]
  T/C: 96 % of control
[4]
  T/C: 120 % of control
dose: 200.0 mg/kg/injection, schedule: Q01DX Z (ip), vehicle: carboxymethylcellulose (CMC)
  T/C: 111 % of control

## Clc1ncnc2nc[nH]c12
dose: 7.5 mg/kg/injection, schedule: Q01DX010 (ip), vehicle: saline
  T/C: 88 % of control
dose: 30.0 mg/kg/injection, schedule: Q01DX010 (ip), vehicle: saline
  T/C: 94 % of control
[6]
  T/C: 86 % of control and 95 % of control
[7]
  T/C: 101 % of control and 102 % of control and 105 % of control
[8]
  T/C: 112 % of control and 114 % of control and 97 % of control
dose: 250.0 mg/kg/injection, schedule: Q01DX Z (ip), vehicle: carboxymethylcellulose (CMC)
  T/C: 106 % of control (2×) and 110 % of control

## Nc1ncnc2c1ncn2C1OC(COCc2ccccc2)C(OCc2ccccc2)C1OCc1ccccc1 (stereo unspecified)
dose: 10.0 mg/kg/injection, schedule: Q01DX010 (ip), vehicle: saline
  T/C: 94 % of control and 100 % of control
dose: 20.0 mg/kg/injection, schedule: Q01DX010 (ip), vehicle: saline
  T/C: 111 % of control and 94 % of control
dose: 40.0 mg/kg/injection, schedule: Q01DX010 (ip), vehicle: saline
  T/C: 105 % of control and 100 % of control
dose: 80.0 mg/kg/injection, schedule: Q01DX010 (ip), vehicle: saline
  T/C: 94 % of control

## CCn1cnc2c(=S)nc[nH]c21
dose: 15.6 mg/kg/injection, schedule: Q01DX Z (ip), vehicle: carboxymethylcellulose (CMC)
  T/C: 92 % of control
[6]
  T/C: 92 % of control
dose: 62.5 mg/kg/injection, schedule: Q01DX010 (ip), vehicle: saline
  T/C: 90 % of control
[7]
  T/C: 93 % of control
dose: 125.0 mg/kg/injection, schedule: Q01DX010 (ip), vehicle: saline
  T/C: 90 % of control

## Nc1nc(=S)c2[nH]cnc2[nH]1
dose: 0.12 mg/kg/injection, schedule: Q01DX Z (ip), vehicle: carboxymethylcellulose (CMC)
  T/C: 101 % of control
dose: 0.25 mg/kg/injection, schedule: Q01DX Z (ip), vehicle: carboxymethylcellulose (CMC)
  T/C: 105 % of control and 109 % of control
dose: 0.5 mg/kg/injection, schedule: Q01DX Z (ip), vehicle: carboxymethylcellulose (CMC)
  T/C: 111 % of control and 122 % of control and 86 % of control
dose: 1.0 mg/kg/injection, schedule: Q01DX Z (ip), vehicle: carboxymethylcellulose (CMC)
  T/C: 107 % of control and 100 % of control
dose: 2.0 mg/kg/injection, schedule: Q01DX Z (ip), vehicle: carboxymethylcellulose (CMC)
  T/C: 103 % of control and 117 % of control and 98 % of control
dose: 2.5 mg/kg/injection, schedule: Q01DX010 (ip), vehicle: other
  T/C: 115 % of control
dose: 4.0 mg/kg/injection, schedule: Q01DX Z (ip), vehicle: carboxymethylcellulose (CMC)
  T/C: 94 % of control
dose: 5.0 mg/kg/injection, schedule: Q01DX010 (ip), vehicle: other
  T/C: 110 % of control and 94 % of control
dose: 10.0 mg/kg/injection, schedule: Q01DX010 (ip), vehicle: other
  T/C: 94 % of control

## O=c1[nH]c(=O)n(C2CC(O)C(CO)O2)cc1Br (stereo unspecified)
dose: 6.5 mg/kg/injection, schedule: Q01DX Z (ip), vehicle: carboxymethylcellulose (CMC)
  T/C: 96 % of control
dose: 8.0 mg/kg/injection, schedule: Q01DX Z (ip), vehicle: carboxymethylcellulose (CMC)
  T/C: 95 % of control
dose: 13.0 mg/kg/injection, schedule: Q01DX Z (ip), vehicle: carboxymethylcellulose (CMC)
  T/C: 107 % of control
dose: 26.0 mg/kg/injection, schedule: Q01DX Z (ip), vehicle: carboxymethylcellulose (CMC)
  T/C: 102 % of control
dose: 31.0 mg/kg/injection, schedule: Q01DX Z (ip), vehicle: carboxymethylcellulose (CMC)
  T/C: 90 % of control

## O=CCC(O)C(O)C(O)CO (stereo unspecified)
dose: 16.0 mg/kg/injection, schedule: Q01DX Z (ip), vehicle: carboxymethylcellulose (CMC)
  T/C: 120 % of control
[7]
  T/C: 113 % of control
[8]
  T/C: 120 % of control
dose: 250.0 mg/kg/injection, schedule: Q01DX010 (ip), vehicle: saline
  T/C: 90 % of control and 100 % of control
dose: 500.0 mg/kg/injection, schedule: Q01DX010 (ip), vehicle: saline
  T/C: 100 % of control

## Nc1nc(SCc2ccccc2)c2[nH]cnc2n1
dose: 2.5 mg/kg/injection, schedule: Q01DX Z (ip), vehicle: carboxymethylcellulose (CMC)
  T/C: 108 % of control
dose: 4.95 mg/kg/injection, schedule: Q01DX Z (ip), vehicle: carboxymethylcellulose (CMC)
  T/C: 113 % of control
[5]
  T/C: 94 % of control
dose: 9.9 mg/kg/injection, schedule: Q01DX Z (ip), vehicle: carboxymethylcellulose (CMC)
  T/C: 91 % of control
dose: 16.0 mg/kg/injection, schedule: Q01DX010 (ip), vehicle: saline
  T/C: 88 % of control
dose: 18.75 mg/kg/injection, schedule: Q01DX Z (ip), vehicle: carboxymethylcellulose (CMC)
  T/C: 88 % of control
dose: 18.8 mg/kg/injection, schedule: Q01DX Z (ip), vehicle: carboxymethylcellulose (CMC)
  T/C: 113 % of control
dose: 32.0 mg/kg/injection, schedule: Q01DX010 (ip), vehicle: saline
  T/C: 100 % of control
dose: 64.0 mg/kg/injection, schedule: Q01DX010 (ip), vehicle: saline
  T/C: 122 % of control
dose: 128.0 mg/kg/injection, schedule: Q01DX010 (ip), vehicle: saline
  T/C: 110 % of control
